Assay results reported in ChEMBL document CHEMBL5126512, “Current status of carbazole hybrids as anticancer agents” (Eur J Med Chem, 2022).

Tests used:
[1] = tested on: A549; assay: Cytotoxicity against human A549 cells assessed as cell growth inhibition measured after 24 hrs by MTT assay; assay type: functional, cell-based; conditions: A549, 24 h, pooled result: one value given for 4 cell lines, strains, targets or settings
[2] = tested on: MCF7; assay: Antiproliferative activity against human MCF7 cells assessed as cell growth inhibition measured after 48 hrs by SRB assay; assay type: functional, cell-based; conditions: for GI50: MCF7, time 48 hrs
[3] = tested on: MDA-MB-231; assay: Antiproliferative activity against human MDA-MB-231 cells assessed as cell growth inhibition measured after 48 hrs by SRB assay; assay type: functional, cell-based; conditions: for GI50: MDA-MB-231, time 48 hrs
[4] = tested on: MDA-MB-231; assay: Antiproliferative activity against human MDA-MB-231 cells assessed as cell growth inhibition by MTT assay; assay type: functional, cell-based
[5] = tested on: HeLa; assay: Antiproliferative activity against human HeLa cells assessed as cell growth inhibition by MTT assay; assay type: functional, cell-based
[6] = tested on: COLO 205; assay: Antiproliferative activity against human COLO 205 cells assessed as cell growth inhibition by MTT assay; assay type: functional, cell-based
[7] = tested on: MCF7; assay: Antiproliferative activity against human MCF7 cells assessed as cell growth inhibition by MTT assay; assay type: functional, cell-based
[8] = tested on: A549; assay: Antiproliferative activity against human A549 cells assessed as cell growth inhibition by MTT assay; assay type: functional, cell-based
[9] = tested on: HCT-116; assay: Antiproliferative activity against human HCT-116 cells assessed as cell growth inhibition by MTT assay; assay type: functional, cell-based
[10] = tested on: K562; assay: Antiproliferative activity against human K562 cells assessed as cell growth inhibition by MTT assay; assay type: functional, cell-based
[11] = tested on: SK-OV-3; assay: Antiproliferative activity against human SK-OV-3 cells assessed as cell growth inhibition by MTT assay; assay type: functional, cell-based
[12] = Cytotoxicity against green monkey MARC145 cells assessed as cell growth inhibition measured after 72 hrs by MTT assay; assay type: toxicity, cell-based, Chlorocebus aethiops
[13] = tested on: HepG2; assay: Cytotoxicity against human HepG2 cells assessed as cell growth inhibition measured after 72 hrs by MTT assay; assay type: functional, cell-based; conditions: HepG2, 72 h
[14] = Cytotoxicity against human A875 cells assessed as cell growth inhibition measured after 72 hrs by MTT assay; assay type: functional, cell-based; conditions: A875, 72 h
[15] = biological target: Urokinase-type plasminogen activator (Homo sapiens, UniProt P00749); assay: Inhibition of urokinase plasminogen activator in human MCF7 cells measured after 24 hrs by ELISA method; assay type: cell-based
[16] = tested on: MCF7; assay: Anticancer activity against human MCF7 cells assessed as cell growth inhibition measured after 24 hrs by MTT assay; assay type: functional, cell-based; conditions: MCF7, 24 h
[17] = Cytotoxicity against human HFB4 cells assessed as cell growth inhibition measured after 24 hrs by MTT assay; assay type: toxicity, cell-based
[18] = tested on: ASPC1; assay: Anticancer activity against human ASPC1 cells assessed as cell growth inhibition measured after 72 hrs by Cell-Titre Glo luminescent cell viability assay; assay type: functional, cell-based; conditions: ASPC1, 72 h
[19] = tested on: SW1990; assay: Anticancer activity against human SW1990 cells assessed as cell growth inhibition measured after 72 hrs by Cell-Titre Glo luminescent cell viability assay; assay type: functional, cell-based; conditions: SW1990, 72 h
[20] = tested on: HEp-2; assay: Cytotoxicity against human HEp-2 cells assessed as cell growth inhibition by MTT assay; assay type: functional, cell-based
[21] = tested on: HeLa; assay: Cytotoxicity against human HeLa cells assessed as cell growth inhibition by MTT assay; assay type: functional, cell-based
[22] = tested on: MCF7; assay: Cytotoxicity against human MCF7 cells assessed as cell growth inhibition by MTT assay; assay type: functional, cell-based
[23] = tested on: HepG2; assay: Antiproliferative activity against human HepG2 cells assessed as cell growth inhibition by MTT assay; assay type: functional, cell-based
[24] = Antiproliferative activity against human Lu1 cells assessed as cell growth inhibition by MTT assay; assay type: functional, cell-based
[25] = Antiproliferative activity against mouse […] cells assessed as cell growth inhibition by MTT assay; assay type: functional, cell-based
[26] = tested on: SW480; assay: Antiproliferative activity against human SW480 cells assessed as cell growth inhibition by MTT assay; assay type: functional, cell-based
[27] = tested on: HCT-116; assay: Antiproliferative activity against human HCT-116 cells assessed as cell growth inhibition measured after 72 hrs by MTT assay; assay type: functional, cell-based; conditions: HCT-116, 72 h
[28] = tested on: MDA-MB-231; assay: Antiproliferative activity against human MDA-MB-231 cells assessed as cell growth inhibition measured after 72 hrs by MTT assay; assay type: functional, cell-based; conditions: MDA-MB-231, 72 h
[29] = tested on: A549; assay: Antiproliferative activity against human A549 cells assessed as cell growth inhibition measured after 72 hrs by MTT assay; assay type: functional, cell-based; conditions: A549, 72 h
[30] = tested on: OVCAR-3; assay: Antiproliferative activity against human OVCAR-3 cells assessed as cell growth inhibition measured after 48 hrs by SRB assay; assay type: functional, cell-based; conditions: OVCAR-3, 48 h
[31] = tested on: Hs-578T; assay: Antiproliferative activity against human Hs-578T cells assessed as cell growth inhibition measured after 48 hrs by SRB assay; assay type: functional, cell-based
[32] = tested on: OVCAR-4; assay: Antiproliferative activity against human OVCAR-4 cells assessed as cell growth inhibition measured after 48 hrs by SRB assay; assay type: functional, cell-based; conditions: OVCAR-4, 48 h
[33] = tested on: HOP-62; assay: Antiproliferative activity against human HOP-62 cells assessed as cell growth inhibition measured after 48 hrs by SRB assay; assay type: functional, cell-based; conditions: HOP-62, 48 h
[34] = tested on: 786-0; assay: Antiproliferative activity against human 786-0 cells assessed as cell growth inhibition measured after 48 hrs by SRB assay; assay type: functional, cell-based; conditions: 786-0, 48 h
[35] = tested on: UO-31; assay: Antiproliferative activity against human UO-31 cells assessed as cell growth inhibition measured after 48 hrs by SRB assay; assay type: functional, cell-based; conditions: UO-31, 48 h
[36] = tested on: SNB-75; assay: Antiproliferative activity against human SNB-75 cells assessed as cell growth inhibition measured after 48 hrs by SRB assay; assay type: functional, cell-based; conditions: SNB-75, 48 h
[37] = tested on: SW-620; assay: Antiproliferative activity against human SW-620 cells assessed as cell growth inhibition measured after 48 hrs by SRB assay; assay type: functional, cell-based; conditions: SW-620, 48 h
[38] = tested on: HT-29; assay: Antiproliferative activity against human HT-29 cells assessed as cell growth inhibition measured after 48 hrs by MTT assay; assay type: functional, cell-based; conditions: HT-29, 48 h
[39] = tested on: HCT-116; assay: Antiproliferative activity against human HCT-116 cells assessed as cell growth inhibition measured after 48 hrs by MTT assay; assay type: functional, cell-based; conditions: HCT-116, 48 h
[40] = tested on: MCF7; assay: Cytotoxicity against human MCF7 cells assessed as cell growth inhibition measured after 48 hrs by MTT assay; assay type: functional, cell-based; conditions: MCF7, 48 h
[41] = tested on: HCT-116; assay: Cytotoxicity against human HCT-116 cells assessed as cell growth inhibition measured after 48 hrs by MTT assay; assay type: functional, cell-based; conditions: HCT-116, 48 h
[42] = tested on: HepG2; assay: Cytotoxicity against human HepG2 cells assessed as cell growth inhibition measured after 48 hrs by MTT assay; assay type: functional, cell-based; conditions: HepG2, 48 h

Q: Which IC50 [1] does the source give for COc1cc(-c2cc(COc3c(OC)cc(-c4cc(-c5ccc6c(c5)c5ccccc5n6-c5nc(-c6ccc(Cl)cc6)ns5)on4)cc3OC)on2)cc(OC)c1OC here?
A: The IC50 was 21 nM.

Q: For O=C(CCCn1c2ccc(Br)cc2c2cc(Br)ccc21)NCCN1CCNCC1, which GI50 [2] is on record?
A: Its GI50 is 8 µM.

Q: What about the GI50 [3] of the same compound?
A: Its GI50 is 4.7 µM.

Q: What does the source list for Oc1c(C(c2ccc(C(F)(F)F)cc2)N2CCCC2)ccc2[nH]c3ccccc3c12 (configuration not stated)?
A: IC50 [4]: 5.4 µM; IC50 [5]: 5.4 µM

Q: Which GI50 [2] does the source give for O=C(Cn1c2ccccc2c2ccccc21)NNC(c1ccc([N+](=O)[O-])cc1)N1CCNCC1 (configuration not stated) here?
A: Its GI50 is < 10 µM.

Q: And the GI50 [3]?
A: The GI50 was < 10 µM.

Q: Which IC50 [6] does the source give for COc1ccc2[nH]c3c(C)cc(-c4cc(-c5ccc(C(F)(F)F)cc5F)nc(N)n4)c(C)c3c2c1 here?
A: The IC50 was 100 nM.

Q: And the IC50 [7]?
A: Its IC50 is 0.1 µM.

Q: What about the IC50 [8] of the same compound?
A: The IC50 was 100 nM.

Q: With Oc1c(C(c2ccc(Br)cc2)N2CCCC2)ccc2[nH]c3ccccc3c12 (configuration not stated) as the compound, how does the IC50 [4] read?
A: The IC50 was 5.4 µM.

Q: What about the IC50 [5] of the same compound?
A: The IC50 was 5.4 µM.

Q: What does the source list for O=Cc1c[nH]c2c1ccc1c3ccccc3n(CCCC(=O)NCCn3ccn4c5ccc(C(F)(F)F)cc5cc34)c12?
A: IC50 [4]: 9 µM; IC50 [9]: 9 µM; IC50 [10]: 9 µM; IC50 [7]: 9 µM; IC50 [11]: 9 µM

Q: Which IC50 at 72 h [12] does the source give for Cc1c(C(=O)NCCc2c[nH]c3ccccc23)ccc2c1[nH]c1ccccc12 here?
A: Its IC50 at 72 h is 20 µM.

Q: And the IC50 [13]?
A: Its IC50 is 20 µM.

Q: What about the IC50 [14] of the same compound?
A: The IC50 was 20 µM.

Q: With Cc1c(C(=O)NCCc2c[nH]c3ccccc23)ccc2c3ccccc3n(C)c12 as the compound, how does the IC50 at 72 h [12] read?
A: Its IC50 at 72 h is > 53.8 µM.

Q: What about the IC50 [13] of the same compound?
A: The IC50 was > 53.8 µM.

Q: What about the IC50 [14] of the same compound?
A: Its IC50 is > 53.8 µM.

Q: With O=[N+]([O-])c1coc(C2c3[nH]c4ccccc4c3C(c3cc([N+](=O)[O-])co3)c3[nH]c4ccccc4c32)c1 (configuration not stated) as the compound, how does the IC50 [15] read?
A: The IC50 was 3.8 µM.

Q: And the IC50 [16]?
A: The IC50 was 5.24 µM.

Q: And the IC50 at 24 h [17]?
A: Its IC50 at 24 h is 75.2 µM.

Q: For Nc1ccn([C@@H]2O[C@H](CO)[C@@H](O)C2(F)F)c(=O)n1 [GEMCITABINE], which IC50 [18] is on record?
A: Its IC50 is 35.1 µM.

Q: And the IC50 [19]?
A: The IC50 was 40.2 µM.

Q: For O=C1c2ccsc2N=C2c3[nH]c4ccc(Cl)cc4c3CCC12 (configuration not stated), which IC50 [20] is on record?
A: Its IC50 is 3.6 µM.

Q: What about the IC50 [21] of the same compound?
A: Its IC50 is 3.6 µM.

Q: What about the IC50 [22] of the same compound?
A: The IC50 was 3.6 µM.

Q: Which results are given for COc1cc2c(cc1C)c1ccccc1n2CC(O)CN1CCN(C)CC1 (configuration not stated)?
A: IC50 [23]: 3.99 µM; IC50 [24]: 3.99 µM; IC50 [25]: 3.99 µM; IC50 [26]: 3.99 µM

Q: For Cc1c(C(=O)N/N=C/c2c[nH]c3ccccc23)ccc2c1[nH]c1ccccc12, which IC50 [13] is on record?
A: The IC50 was > 13.3 µM.

Q: What does the source list for CC1CCCCN1CC(O)Cn1c2ccc(Cl)cc2c2cc(Cl)ccc21 (configuration not stated)?
A: IC50 [27]: 7.1 µM; IC50 [28]: 7.1 µM; IC50 [29]: 7.1 µM

Q: For O=C(Cn1c2ccccc2c2ccccc21)NNC(c1ccc(O)cc1)N1CCNCC1 (configuration not stated), which GI50 [2] is on record?
A: The GI50 was < 10 µM.

Q: What about the GI50 [3] of the same compound?
A: The GI50 was < 10 µM.

Q: Which IC50 [30] does the source give for Cc1c2ccncc2c(C(=O)NCc2ccccc2)c2c1[nH]c1ccccc12 here?
A: Its IC50 is 1710 nM.

Q: And the IC50 ([2]; MCF7, 48 h)?
A: Its IC50 is 1710 nM.

Q: What about the IC50 [31] of the same compound?
A: The IC50 was 1710 nM.

Q: And the IC50 [32]?
A: Its IC50 is 1710 nM.

Q: What about the IC50 [33] of the same compound?
A: Its IC50 is 1710 nM.

Q: And the IC50 [34]?
A: Its IC50 is 1710 nM.

Q: What about the IC50 [35] of the same compound?
A: Its IC50 is 1710 nM.

Q: What about the IC50 [36] of the same compound?
A: Its IC50 is 1710 nM.

Q: What about the IC50 [37] of the same compound?
A: The IC50 was 1710 nM.

Q: And the IC50 ([3]; MDA-MB-231, 48 h)?
A: The IC50 was 1710 nM.

Q: Which IC50 [38] does the source give for COc1ccc2c(c1)[nH]c1cc(O)c(CN3CCCCC3)cc12 here?
A: Its IC50 is 18 µM.

Q: And the IC50 [39]?
A: Its IC50 is 18 µM.

Q: For COc1cc(-c2cc(-c3ccc4c(c3)c3ccccc3n4-c3nc(-c4ccc(Cl)cc4)ns3)on2)cc(OC)c1OCc1cc(-c2ccncc2)no1, which IC50 [1] is on record?
A: Its IC50 is 10 nM.

Q: What does the source list for CCn1c2ccccc2c2cc(NC(=O)c3cc4cc(Br)cc(Br)c4oc3=O)ccc21?
A: IC50 [40]: 900 nM; IC50 [41]: 900 nM; IC50 [42]: 900 nM
